Drawing on patent publication US10626112B2, “Heterocyclic sulfonamide derivative and medicine comprising same” (EA PHARMA CO., LTD., priority 2014, dated 2020), this text covers IC50 for 30 compounds.

Molecules are shown by their SMILES.

This experiment addresses human TRPA1 (Homo sapiens (Human), UniProt O75762). In words: Measurement of TRPA1 antagonist activity (1): intracellular calcium increase. The format is cell-based. As to conditions: 293T cells transfected with human TRPA1 expression plasmid; allylisothiocyanate 20 μM stimulation; intracellular calcium fluorescence; read-out: hTRPA1 IC50. A digest of the protocol:
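Calcium-flux readout of TRPA1 block: compound given 10 min before 20 μM (final) allylisothiocyanate, fluorescence tracked 5 min. Cells were 293T transiently expressing human TRPA1, dye-loaded 1 hr in HBSS, 20 mM HEPES, pH 7.2. Inhibition scaled between agonist-only and buffer-only responses; IC50 by sigmoid fitting.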

human TRPA1, sequence (O75762 whole entry): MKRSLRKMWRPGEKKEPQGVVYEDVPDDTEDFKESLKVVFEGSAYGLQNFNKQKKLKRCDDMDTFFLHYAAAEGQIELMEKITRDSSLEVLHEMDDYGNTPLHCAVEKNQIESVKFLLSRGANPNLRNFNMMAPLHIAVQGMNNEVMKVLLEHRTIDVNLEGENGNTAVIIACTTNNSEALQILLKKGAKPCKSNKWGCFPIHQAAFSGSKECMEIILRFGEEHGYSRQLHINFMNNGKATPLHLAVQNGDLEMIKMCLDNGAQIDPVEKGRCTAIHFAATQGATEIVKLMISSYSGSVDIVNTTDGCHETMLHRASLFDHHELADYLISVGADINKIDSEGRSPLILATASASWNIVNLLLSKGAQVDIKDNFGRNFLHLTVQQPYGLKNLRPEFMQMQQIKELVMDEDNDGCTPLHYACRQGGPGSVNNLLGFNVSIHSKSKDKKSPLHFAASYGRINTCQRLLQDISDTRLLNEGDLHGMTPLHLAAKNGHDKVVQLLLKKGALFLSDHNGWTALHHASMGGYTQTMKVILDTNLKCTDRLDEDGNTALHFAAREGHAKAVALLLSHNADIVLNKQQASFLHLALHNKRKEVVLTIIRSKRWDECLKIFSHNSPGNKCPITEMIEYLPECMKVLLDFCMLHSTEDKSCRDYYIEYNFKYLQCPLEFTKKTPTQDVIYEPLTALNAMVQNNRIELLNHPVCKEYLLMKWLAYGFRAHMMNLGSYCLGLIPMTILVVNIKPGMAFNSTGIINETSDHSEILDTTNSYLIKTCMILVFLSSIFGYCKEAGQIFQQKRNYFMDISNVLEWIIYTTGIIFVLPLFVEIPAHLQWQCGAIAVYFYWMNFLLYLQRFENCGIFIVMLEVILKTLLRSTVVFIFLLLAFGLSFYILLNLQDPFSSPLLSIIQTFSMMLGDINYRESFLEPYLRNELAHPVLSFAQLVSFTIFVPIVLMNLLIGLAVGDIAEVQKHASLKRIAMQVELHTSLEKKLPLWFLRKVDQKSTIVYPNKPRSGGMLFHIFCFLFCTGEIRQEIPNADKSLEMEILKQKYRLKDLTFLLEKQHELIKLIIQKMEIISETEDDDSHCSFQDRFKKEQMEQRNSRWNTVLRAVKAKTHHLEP

Consider `C[C@H](NS(=O)(=O)c1cc2cc(F)ccc2o1)C(=O)NCc1cc(-c2ccc(C(F)(F)F)cc2)ncn1` [Example 109, (2S)-2-[(5-fluorobenzofuran-2-yl)sulfonylamino]-N-[[6-[4-(trifluoromethyl)phenyl]pyrimidin-4-yl]methyl]propanamide], for which the IC50 (commonly the concentration needed to halve the response being measured) stood at 4.7 nM.
As for `C[C@H](NS(=O)(=O)c1cc2cc(F)ccc2o1)C(=O)NCc1cc(-c2ccc(C(F)(F)F)nc2)ccn1` [Example 110, (2S)-2-[(5-fluorobenzofuran-2-yl)sulfonylamino]-N-[[4-[6-(trifluoromethyl)-3-pyridyl]-2-pyridyl]methyl]propanamide], the figure is 17 nM; as for `Cc1ccc2oc(S(=O)(=O)N3CCC[C@H]3C(=O)NCc3cccc(-c4ccc(C(F)(F)F)nc4)c3)cc2c1` [Example 111, (2S)-1-(5-methylbenzofuran-2-yl)sulfonyl-N-[[3-[6-(trifluoromethyl)-3-pyridyl]phenyl]methyl]pyrrolidine-2-carboxamide], 130 nM; as for `O=C(NCc1ccnc(-c2ccccc2)c1)[C@@H]1CCCN1S(=O)(=O)c1cc2ccccc2o1` [Example 112, (2S)-1-(benzofuran-2-ylsulfonyl)-N-[(2-phenyl-4-pyridyl)methyl]pyrrolidine-2-carboxamide], 270 nM.
Turning to `O=C(NCc1ccnc(-c2cccc(F)c2)c1)[C@@H]1CCCN1S(=O)(=O)c1cc2ccccc2o1` [Example 113, (2S)-1-(benzofuran-2-ylsulfonyl)-N-[[2-(3-fluorophenyl)-4-pyridyl]methyl]pyrrolidine-2-carboxamide], the IC50 was 120 nM.
As for `O=C(NCc1ccnc(-c2ccc(F)cc2)c1)[C@@H]1CCCN1S(=O)(=O)c1cc2ccccc2o1` [Example 114, (2S)-1-(benzofuran-2-ylsulfonyl)-N-[[2-(4-fluorophenyl)-4-pyridyl]methyl]pyrrolidine-2-carboxamide], the figure is 32 nM; as for `O=C(NCc1ccnc(-c2ccc(C(F)(F)F)cc2)c1)[C@@H]1CCCN1S(=O)(=O)c1cc2ccccc2o1` [Example 115, (2S)-1-(benzofuran-2-ylsulfonyl)-N-[[2-[4-(trifluoromethyl)phenyl]-4-pyridyl]methyl]pyrrolidine-2-carboxamide], 2.4 nM.
The value for `O=C(NCc1ccnc(-c2ccc(OC(F)(F)F)cc2)c1)[C@@H]1CCCN1S(=O)(=O)c1cc2ccccc2o1` [Example 116, (2S)-1-(benzofuran-2-ylsulfonyl)-N-[[2-[4-(trifluoromethoxy)phenyl]-4-pyridyl]methyl]pyrrolidine-2-carboxamide] was 2.9 nM.
As for `N#Cc1ccc(-c2cc(CNC(=O)[C@@H]3CCCN3S(=O)(=O)c3cc4ccccc4o3)ccn2)cc1` [Example 117, (2S)-1-(benzofuran-2-ylsulfonyl)-N-[[2-(4-cyanophenyl)-4-pyridyl]methyl]pyrrolidine-2-carboxamide], the figure is 14 nM; as for `N#Cc1cccc(-c2cc(CNC(=O)[C@@H]3CCCN3S(=O)(=O)c3cc4ccccc4o3)ccn2)c1` [Example 118, (2S)-1-(benzofuran-2-ylsulfonyl)-N-[[2-(3-cyanophenyl)-4-pyridyl]methyl]pyrrolidine-2-carboxamide], 260 nM.
Take `N#Cc1ccc(-c2cc(CNC(=O)[C@@H]3CCCN3S(=O)(=O)c3cc4ccccc4o3)ccn2)cc1F` [Example 119, (2S)-1-(benzofuran-2-ylsulfonyl)-N-[[2-(4-cyano-3-fluoro-phenyl)-4-pyridyl]methyl]pyrrolidine-2-carboxamide]: the IC50 was 12 nM.
As for `O=C(NCc1ccnc(-c2ccccc2O)c1)[C@@H]1CCCN1S(=O)(=O)c1cc2ccccc2o1` [Example 120, (2S)-1-(benzofuran-2-ylsulfonyl)-N-[[2-(2-hydroxyphenyl)-4-pyridyl]methyl]pyrrolidine-2-carboxamide], the figure is 180 nM; as for `O=C(NCc1ccnc(-c2ccc(F)cc2O)c1)[C@@H]1CCCN1S(=O)(=O)c1cc2ccccc2o1` [Example 121, (2S)-1-(benzofuran-2-ylsulfonyl)-N-[[2-(4-fluoro-2-hydroxy-phenyl)-4-pyridyl]methyl]pyrrolidine-2-carboxamide], 32 nM; as for `O=C(NCc1ccnc(-c2cc(F)c(F)cc2O)c1)[C@@H]1CCCN1S(=O)(=O)c1cc2ccccc2o1` [Example 122, (2S)-1-(benzofuran-2-ylsulfonyl)-N-[[2-(4,5-difluoro-2-hydroxy-phenyl)-4-pyridyl]methyl]pyrrolidine-2-carboxamide], 170 nM.
As to `O=C(NCc1ccnc(-c2ccc(C(F)(F)F)cc2O)c1)[C@@H]1CCCN1S(=O)(=O)c1cc2ccccc2o1` [Example 123, (2S)-1-(benzofuran-2-ylsulfonyl)-N-[[2-[2-hydroxy-4-(trifluoromethyl)phenyl]-4-pyridyl]methyl]pyrrolidine-2-carboxamide], the IC50 is 2.6 nM.
As for `O=C(NCc1ccnc(-c2ccc(C(F)(F)F)nc2)c1)[C@@H]1CCCN1S(=O)(=O)c1cc2ccccc2o1` [Example 124, (2S)-1-(benzofuran-2-ylsulfonyl)-N-[[2-[6-(trifluoromethyl)-3-pyridyl]-4-pyridyl]methyl]pyrrolidine-2-carboxamide], the figure is 3.4 nM.
As for `CN(C)c1ccc(-c2cc(CNC(=O)[C@@H]3CCCN3S(=O)(=O)c3cc4ccccc4o3)ccn2)cn1` [Example 125, (2S)-1-(benzofuran-2-ylsulfonyl)-N-[[2-[6-(dimethylamino)-3-pyridyl]-4-pyridyl]methyl]pyrrolidine-2-carboxamide], the figure is 240 nM.
The value for `N#Cc1ccc(-c2cc(CNC(=O)[C@@H]3CCCN3S(=O)(=O)c3cc4ccccc4o3)ccn2)c(OCc2ccccc2)c1` [Example 126, (2S)-1-(benzofuran-2-ylsulfonyl)-N-[[2-(2-benzyloxy-4-cyano-phenyl)-4-pyridyl]methyl]pyrrolidine-2-carboxamide] was 78 nM; that for `Cn1nc(C(F)(F)F)cc1-c1cc(CNC(=O)[C@@H]2CCCN2S(=O)(=O)c2cc3ccccc3o2)ccn1` [Example 127, (2S)-1-(benzofuran-2-ylsulfonyl)-N-[[2-[2-methyl-5-(trifluoromethyl)pyrazol-3-yl]-4-pyridyl]methyl]pyrrolidine-2-carboxamide] was 25 nM.
As for `O=C(NCc1ccnc(-c2ccc(C(F)(F)F)cc2)c1)[C@@H]1CCCN1S(=O)(=O)c1cc2cc(F)ccc2o1` [Example 128, (2S)-1-(5-fluorobenzofuran-2-yl)sulfonyl-N-[[2-[4-(trifluoromethyl)phenyl]-4-pyridyl]methyl]pyrrolidine-2-carboxamide], the half-inhibitory concentration (IC50) is 0.61 nM.
Consider `O=C(NCc1ccnc(-c2ccc(OC(F)(F)F)cc2)c1)[C@@H]1CCCN1S(=O)(=O)c1cc2cc(F)ccc2o1` [Example 129, (2S)-1-(5-fluorobenzofuran-2-yl)sulfonyl-N-[[2-[4-(trifluoromethoxy)phenyl]-4-pyridyl]methyl]pyrrolidine-2-carboxamide], for which the IC50 is 0.61 nM.
The value for `O=C(NCc1ccnc(-c2ccc(OC(F)F)cc2)c1)[C@@H]1CCCN1S(=O)(=O)c1cc2cc(F)ccc2o1` [Example 130, (2S)-N-[[2-[4-(difluoromethoxy)phenyl]-4-pyridyl]methyl]-1-(5-fluorobenzofuran-2-yl)sulfonyl-pyrrolidine-2-carboxamide] was 2 nM.
The value for `COc1ccc(-c2cc(CNC(=O)[C@@H]3CCCN3S(=O)(=O)c3cc4cc(F)ccc4o3)ccn2)cc1` [Example 131, (2S)-1-(5-fluorobenzofuran-2-yl)sulfonyl-N-[[2-(4-methoxyphenyl)-4-pyridyl]methyl]pyrrolidine-2-carboxamide] was 32 nM; that for `N#Cc1ccc(-c2cc(CNC(=O)[C@@H]3CCCN3S(=O)(=O)c3cc4cc(F)ccc4o3)ccn2)cc1` [Example 132, (2S)-N-[[2-(4-cyanophenyl)-4-pyridyl]methyl]-1-(5-fluorobenzofuran-2-yl)sulfonyl-pyrrolidine-2-carboxamide] was 7.6 nM.
As for `O=C(NCc1ccnc(-c2ccc(C(F)(F)F)nc2)c1)[C@@H]1CCCN1S(=O)(=O)c1cc2cc(F)ccc2o1` [Example 133, (2S)-1-(5-fluorobenzofuran-2-yl)sulfonyl-N-[[2-[6-(trifluoromethyl)-3-pyridyl]-4-pyridyl]methyl]pyrrolidine-2-carboxamide], the figure is 0.83 nM; as for `O=C(NCc1ccnc(-c2cnc(C3CC3)nc2)c1)[C@@H]1CCCN1S(=O)(=O)c1cc2cc(F)ccc2o1` [Example 134, (2S)-N-[[2-(2-cyclopropylpyrimidin-5-yl)-4-pyridyl]methyl]-1-(5-fluorobenzofuran-2-yl)sulfonyl-pyrrolidine-2-carboxamide], 42 nM; as for `O=C(NCc1ccnc(-c2ccccc2O)c1)[C@@H]1CCCN1S(=O)(=O)c1cc2cc(F)ccc2o1` [Example 135, (2S)-1-(5-fluorobenzofuran-2-yl)sulfonyl-N-[[2-(2-hydroxyphenyl)-4-pyridyl]methyl]pyrrolidine-2-carboxamide], 30 nM.
For `O=C(NCc1ccnc(-c2ccc(F)cc2O)c1)[C@@H]1CCCN1S(=O)(=O)c1cc2cc(F)ccc2o1` [Example 136, (2S)-1-(5-fluorobenzofuran-2-yl)sulfonyl-N-[[2-(4-fluoro-2-hydroxy-phenyl)-4-pyridyl]methyl]pyrrolidine-2-carboxamide], the IC50 is 13 nM.
The value for `O=C(NCc1ccnc(-c2cc(F)c(F)cc2O)c1)[C@@H]1CCCN1S(=O)(=O)c1cc2cc(F)ccc2o1` [Example 137, (2S)-N-[[2-(4,5-difluoro-2-hydroxy-phenyl)-4-pyridyl]methyl]-1-(5-fluorobenzofuran-2-yl)sulfonyl-pyrrolidine-2-carboxamide] was 29 nM; that for `O=C(NCc1ccnc(-c2ccc(C(F)(F)F)cc2O)c1)[C@@H]1CCCN1S(=O)(=O)c1cc2cc(F)ccc2o1` [Example 138, (2S)-1-(5-fluorobenzofuran-2-yl)sulfonyl-N-[[2-[2-hydroxy-4-(trifluoromethyl)phenyl]-4-pyridyl]methyl]pyrrolidine-2-carboxamide] was 0.97 nM.
